The values that follow come from ChEMBL document CHEMBL1159144, “Novel pyridazino[4,5-b][1,5]oxazepines and -thiazepines as 5-HT1A receptor ligands” (Bioorg Med Chem Lett, 1997).

The term IC50 denotes the concentration that gives 50% inhibition.

A value given as a limit tells only on which side of the number the result lay.

Assay [1] has as its target T1, Adrenergic receptor alpha-1 (Rattus norvegicus, UniProt P15823+P23944+P43140).
T1 sequence (P15823 whole entry): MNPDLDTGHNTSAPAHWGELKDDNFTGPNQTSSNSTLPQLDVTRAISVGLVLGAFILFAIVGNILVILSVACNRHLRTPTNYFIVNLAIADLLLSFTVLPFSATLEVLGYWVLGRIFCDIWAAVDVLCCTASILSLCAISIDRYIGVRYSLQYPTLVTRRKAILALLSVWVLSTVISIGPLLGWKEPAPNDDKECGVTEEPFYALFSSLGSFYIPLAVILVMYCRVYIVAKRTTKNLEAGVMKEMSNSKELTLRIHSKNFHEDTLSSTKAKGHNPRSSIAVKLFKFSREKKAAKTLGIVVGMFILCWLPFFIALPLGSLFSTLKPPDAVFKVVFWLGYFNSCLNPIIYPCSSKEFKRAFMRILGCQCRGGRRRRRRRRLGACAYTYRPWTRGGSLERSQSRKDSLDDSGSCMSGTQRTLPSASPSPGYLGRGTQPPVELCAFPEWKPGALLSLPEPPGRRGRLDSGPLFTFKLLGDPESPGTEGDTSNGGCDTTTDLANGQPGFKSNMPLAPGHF
T1 sequence (P23944 whole entry): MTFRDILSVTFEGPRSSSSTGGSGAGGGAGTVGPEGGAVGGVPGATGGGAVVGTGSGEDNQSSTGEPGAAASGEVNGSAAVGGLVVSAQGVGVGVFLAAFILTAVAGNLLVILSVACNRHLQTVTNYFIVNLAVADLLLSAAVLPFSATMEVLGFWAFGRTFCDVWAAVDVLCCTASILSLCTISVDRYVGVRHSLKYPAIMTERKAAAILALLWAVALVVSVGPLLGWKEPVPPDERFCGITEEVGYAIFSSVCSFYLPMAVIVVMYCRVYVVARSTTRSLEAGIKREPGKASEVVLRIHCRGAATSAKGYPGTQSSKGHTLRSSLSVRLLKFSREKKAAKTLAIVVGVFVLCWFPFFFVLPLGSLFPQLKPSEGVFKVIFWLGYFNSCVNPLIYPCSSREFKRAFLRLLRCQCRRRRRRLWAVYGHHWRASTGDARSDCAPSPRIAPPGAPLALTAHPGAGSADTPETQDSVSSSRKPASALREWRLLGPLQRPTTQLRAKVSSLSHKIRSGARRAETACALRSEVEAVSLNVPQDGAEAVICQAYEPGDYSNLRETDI
T1 sequence (P43140 whole entry): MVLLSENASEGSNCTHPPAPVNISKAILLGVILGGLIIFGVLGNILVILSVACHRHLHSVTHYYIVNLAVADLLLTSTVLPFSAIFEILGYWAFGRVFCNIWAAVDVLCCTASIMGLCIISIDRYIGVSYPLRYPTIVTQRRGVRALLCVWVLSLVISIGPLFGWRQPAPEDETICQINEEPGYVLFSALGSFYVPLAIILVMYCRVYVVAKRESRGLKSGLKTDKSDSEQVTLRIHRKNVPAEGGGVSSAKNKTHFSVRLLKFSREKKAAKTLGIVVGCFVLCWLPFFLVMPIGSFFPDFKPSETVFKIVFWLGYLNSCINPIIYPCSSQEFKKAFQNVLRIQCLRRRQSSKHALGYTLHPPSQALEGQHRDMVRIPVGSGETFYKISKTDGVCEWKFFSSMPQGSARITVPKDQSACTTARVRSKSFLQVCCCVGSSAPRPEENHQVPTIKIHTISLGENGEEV
Briefly: Binding affinity towards Alpha-1 adrenergic receptor. The format is protein assay.

Assay [2] deals with T2, 5-hydroxytryptamine receptor 1A (Rattus norvegicus, UniProt P19327).
T2 sequence (P19327 whole entry): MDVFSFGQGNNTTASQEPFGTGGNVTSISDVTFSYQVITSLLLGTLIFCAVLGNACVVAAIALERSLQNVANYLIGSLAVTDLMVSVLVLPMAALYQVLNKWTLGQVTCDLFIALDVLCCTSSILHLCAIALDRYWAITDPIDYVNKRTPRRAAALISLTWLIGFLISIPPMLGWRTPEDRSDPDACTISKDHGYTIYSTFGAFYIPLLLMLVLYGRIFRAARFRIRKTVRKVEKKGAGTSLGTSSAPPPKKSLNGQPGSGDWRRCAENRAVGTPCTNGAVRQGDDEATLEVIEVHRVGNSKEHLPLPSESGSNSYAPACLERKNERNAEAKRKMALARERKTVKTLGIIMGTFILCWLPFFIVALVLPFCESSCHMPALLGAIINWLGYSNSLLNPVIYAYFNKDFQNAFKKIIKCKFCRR
Briefly: Binding affinity towards 5-hydroxytryptamine 1A receptor using receptor binding assay.

In assay [3] the target is T3, Adrenergic receptor alpha-2 (Rattus norvegicus, UniProt P22086+P19328+P22909).
T3 sequence (P22086 whole entry): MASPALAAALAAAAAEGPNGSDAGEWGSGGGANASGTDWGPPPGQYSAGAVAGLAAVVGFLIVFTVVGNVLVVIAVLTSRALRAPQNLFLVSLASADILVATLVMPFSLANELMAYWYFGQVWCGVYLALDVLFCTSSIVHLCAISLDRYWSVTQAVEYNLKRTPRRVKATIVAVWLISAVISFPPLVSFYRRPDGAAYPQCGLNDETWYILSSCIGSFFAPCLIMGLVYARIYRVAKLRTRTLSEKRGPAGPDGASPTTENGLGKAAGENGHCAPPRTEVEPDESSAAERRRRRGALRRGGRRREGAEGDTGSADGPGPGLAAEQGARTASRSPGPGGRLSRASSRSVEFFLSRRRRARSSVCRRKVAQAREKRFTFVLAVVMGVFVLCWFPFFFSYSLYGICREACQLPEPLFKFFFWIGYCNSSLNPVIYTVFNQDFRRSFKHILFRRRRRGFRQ
T3 sequence (P19328 whole entry): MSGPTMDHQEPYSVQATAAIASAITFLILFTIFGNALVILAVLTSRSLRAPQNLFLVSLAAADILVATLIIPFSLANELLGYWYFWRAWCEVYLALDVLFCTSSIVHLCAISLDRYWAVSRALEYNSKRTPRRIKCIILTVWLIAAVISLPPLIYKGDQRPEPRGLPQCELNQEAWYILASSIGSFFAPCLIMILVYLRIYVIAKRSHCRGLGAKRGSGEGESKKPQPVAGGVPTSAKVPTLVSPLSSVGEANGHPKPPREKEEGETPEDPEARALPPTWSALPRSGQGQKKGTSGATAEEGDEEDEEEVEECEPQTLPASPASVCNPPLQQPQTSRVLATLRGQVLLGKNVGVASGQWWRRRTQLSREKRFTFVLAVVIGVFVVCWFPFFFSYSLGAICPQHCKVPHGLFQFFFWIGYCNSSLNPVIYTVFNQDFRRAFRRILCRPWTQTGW
T3 sequence (P22909 whole entry): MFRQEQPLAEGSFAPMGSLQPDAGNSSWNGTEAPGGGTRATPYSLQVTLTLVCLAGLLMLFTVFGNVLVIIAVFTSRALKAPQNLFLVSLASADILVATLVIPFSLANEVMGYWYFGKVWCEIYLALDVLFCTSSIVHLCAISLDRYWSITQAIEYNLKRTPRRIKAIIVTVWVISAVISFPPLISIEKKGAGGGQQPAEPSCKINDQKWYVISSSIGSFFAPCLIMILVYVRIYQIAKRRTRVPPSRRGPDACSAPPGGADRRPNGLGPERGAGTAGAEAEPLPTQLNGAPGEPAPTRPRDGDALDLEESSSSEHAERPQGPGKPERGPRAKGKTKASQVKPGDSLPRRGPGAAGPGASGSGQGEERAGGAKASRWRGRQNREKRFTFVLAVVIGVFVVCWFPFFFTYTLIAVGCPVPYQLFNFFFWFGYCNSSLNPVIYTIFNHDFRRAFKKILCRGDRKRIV
The assay can be described thus: Binding affinity towards Alpha-2 adrenergic receptor. Type of assay: protein assay.

As for `COc1ccccc1OCCN(C)CCC(=O)N1CCCOc2c1cnn(C)c2=O`, the 50% inhibitory concentration (IC50) in assay [1] came out at 16100 nM; in assay [2], 134 nM; in assay [3], 9500 nM. For `COc1ccccc1OCCNCCC(=O)N1CCCSc2c1cnn(C)c2=O`, the half-inhibitory concentration (IC50) in assay [1] was found to be 1700 nM; in assay [2] it was 11.4 nM; in assay [3] it was 270 nM. `COc1ccccc1OCCN(CCC(=O)N1CCCOc2c1cnn(C)c2=O)Cc1ccccc1` returned an IC50 in assay [2] of 1000 nM. On the same count and under the same terms, as for `CCSc1c(N(C)C(=O)CCNCCOc2ccccc2OC)cnn(C)c1=O`, the figure is 32.7 nM. In the case of `COc1ccccc1OCCNCCCC(=O)N1CCCSc2c1cnn(C)c2=O`, the 50% inhibitory concentration (IC50) turned out to be 930 nM in assay [1], 9.2 nM in assay [2] and 860 nM in assay [3]. As to `Cn1ncc2c(c1=O)SCCCN2C(=O)CCNCCOc1cccc(Cl)c1`, in assay [2], the IC50 was determined as 181 nM.

In assay [2], `Cn1ncc2c(c1=O)SCCCN2C(=O)CCNCCOc1ccccc1` registered an IC50 of 150 nM.

Consider `COc1ccccc1OCC(O)CN1CCN(CCC(=O)N2CCCOc3c2cnn(C)c3=O)CC1` (stereo unspecified), for which the concentration for half-maximal inhibition (IC50) in assay [1] is above 10000 nM; in assay [2], above 1000 nM; in assay [3], 47000 nM. The matching figures for `COc1ccccc1OCCNCCCC(=O)N1CCCOc2c1cnn(C)c2=O`: 690 nM, 17.8 nM and 3900 nM.

In turn, `Cn1ncc2c(c1=O)OCCCN2C(=O)CNCCOc1ccccc1` gave an IC50 in assay [2] of 230 nM. In assay [2], `Cn1ncc2c(c1=O)OCCCN2C(=O)CCNCCOc1cccc(Cl)c1` registered an IC50 of 312 nM. Take `COc1ccccc1OCCNCC(=O)N1CCCSc2c1cnn(C)c2=O`: the concentration for half-maximal inhibition (IC50) in assay [1] was above 10000 nM; in assay [2], 37 nM; in assay [3], 3100 nM.

In the case of `COc1cccc(OCC(O)CN2CCN(CCC(=O)N3CCCSc4c3cnn(C)c4=O)CC2)c1` (stereo unspecified), the half-maximal inhibitory concentration (IC50) in assay [2] came out at 118 nM. On the same count and under the same terms, as for `COc1ccccc1OCCNC(C)C(=O)N1CCCOc2c1cnn(C)c2=O` (stereo unspecified), the figure is above 1000 nM. As to `COc1ccccc1OCCNCCC(=O)N1CCCOc2c1cnn(C)c2=O`, the IC50 in assay [1] was 1700 nM; in assay [2] it was 19.5 nM; in assay [3], 1800 nM. The matching figures for `Cn1ncc2c(c1=O)SCCCN2C(=O)CNCC1COc2ccccc2O1` (stereo unspecified): 19000 nM, 44.9 nM and 2330 nM. `COc1ccccc1OCC(O)CN1CCN(CC(=O)N2CCCOc3c2cnn(C)c3=O)CC1` (stereo unspecified): the IC50 in assay [2] was above 1000 nM.

In assay [2], `COc1ccccc1OCCN(C)CCCN1CCCSc2c1cnn(C)c2=O` yielded a concentration for half-maximal inhibition (IC50) above 1000 nM.

In assay [2], `COc1ccccc1OCCNC(C)C(=O)N1CCCSc2c1cnn(C)c2=O` (stereo unspecified) returned an IC50 above 1000 nM.

In the case of `Cn1ncc2c(c1=O)OCCCN2C(=O)CNCC1COc2ccccc2O1` (stereo unspecified), the concentration for half-maximal inhibition (IC50) in assay [1] is above 10000 nM; in assay [2], 299 nM; in assay [3], 4600 nM. Regarding `COc1ccccc1OCCN(CCC(=O)N1CCCSc2c1cnn(C)c2=O)Cc1ccccc1`, the IC50 in assay [2] is above 1000 nM.

`COc1ccccc1OCCNCC(=O)N1CCCOc2c1cnn(C)c2=O`: the IC50 worked out at 12500 nM in assay [1], 163 nM in assay [2] and 21000 nM in assay [3]. Regarding `COc1ccccc1N1CCN(CC(=O)N2CCCOc3c2cnn(C)c3=O)CC1`, the half-maximal inhibitory concentration (IC50) in assay [2] is above 1000 nM.

For the molecule `Cn1ncc2c(c1=O)OCCCN2C(=O)CCNCCOc1ccccc1`, the IC50 came to 8900 nM in assay [1], 524 nM in assay [2] and 540 nM in assay [3].
